Legend:
Settings in all cases: main component drawn
B. subtilis 168 = assay: Bliss interaction score (quartile over a dose matrix) (fitness difference); higher = more antagonism (negative = synergy)
Outline: (§1)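 Quartiles summarise the Bliss score over technical, biological and donor/recipient replicates, where the score is observed minus expected fitness under a product model. Expected fitness uses single-drug values inferred from combination data. Fitness is OD595 at entry into stationary phase over the plate's robust no-drug mean, capped at 1.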

S. pneumoniae D39V = assay: as above
Outline: as §1

S. aureus DSM 20231 [1] = assay: as above
Outline: as §1

S. aureus Newman [2] = assay: as above
Outline: as §1

S. aureus DSM 20231 [3] = assay: fitness (endpoint OD595 vs no drug) (fraction); higher = more growth
Outline: (§2)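 In 384-well plates at 37 °C, cultures began at OD595 0.01 in 30 µl, with 55 µl used for S. pneumoniae. OD595 readings every 30 min for 14 h were corrected by the first reading. Fitness divides the stationary-phase transition optical density by the robust mean of no-drug control wells. The result is capped at 1.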

S. aureus Newman [4] = assay: as above
Outline: as §2
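Wherever Bliss interaction score (quartile over a dose matrix) is given: first quartile when negative (synergy) and third quartile when positive (antagonism).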

CCCCCCCCCC(=O)N[C@H]1[C@H](Oc2c3cc4cc2Oc2ccc(cc2Cl)[C@@H](O[C@@H]2O[C@H](CO)[C@@H](O)[C@H](O)[C@H]2NC(C)=O)[C@@H]2NC(=O)[C@H](NC(=O)[C@@H]4NC(=O)[C@H]4NC(=O)[C@@H](Cc5ccc(c(Cl)c5)O3)NC(=O)[C@H](N)c3ccc(O)c(c3)Oc3cc(O)cc4c3)c3ccc(O)c(c3)-c3c(O[C@H]4O[C@H](CO)[C@@H](O)[C@H](O)[C@@H]4O)cc(O)cc3[C@@H](C(=O)O)NC2=O)O[C@H](CO)[C@@H](O)[C@@H]1O [Teicoplanin] + CC1=C\[C@@H](O)CC(=O)Cc2nc(co2)C(=O)N2CCC=C2C(=O)O[C@H](C(C)C)[C@H](C)/C=C/C(=O)NC\C=C\1 [Virginiamycin M1]
Settings	Bliss interaction score
B. subtilis 168	0.117
S. aureus DSM 20231 [1]	0.101
S. aureus Newman [2]	0.0746
S. pneumoniae D39V	0.262

fitness, S. aureus DSM 20231 [3]
Settings	first compound 0.1562 µg/mL	first compound 0.3125 µg/mL	first compound 0.625 µg/mL
partner 0.0625 µg/mL	0.996	≥ 1	≥ 1
partner 0.125 µg/mL	≥ 1	≥ 1	≥ 1
partner 0.25 µg/mL	≥ 1	≥ 1	≥ 1

fitness, one replicate
Settings	first compound 0.1562 µg/mL	first compound 0.3125 µg/mL	first compound 0.62 µg/mL	first compound 0.625 µg/mL	first compound 1.24 µg/mL	first compound 2.48 µg/mL
S. aureus DSM 20231 [3], partner 0.5 µg/mL	≥ 1	≥ 1	–	≥ 1	–	–
S. aureus DSM 20231 [3], partner 1 µg/mL	0.864	0.861	–	≥ 1	–	–
S. aureus Newman [4], partner 0.0625 µg/mL	≥ 1	0.97	0.773	0.843	0.78	0.473
S. aureus Newman [4], partner 0.125 µg/mL	≥ 1	≥ 1	0.784	0.774	0.764	0.529
S. aureus Newman [4], partner 0.25 µg/mL	≥ 1	≥ 1	0.831	0.839	0.766	0.486
S. aureus Newman [4], partner 0.5 µg/mL	0.945	0.989	–	≥ 1	–	–
S. aureus Newman [4], partner 1 µg/mL	≥ 1	0.971	–	≥ 1	–	–
S. aureus Newman [4], partner 2 µg/mL	0.876	0.951	–	≥ 1	–	–

CCCCCCCCCC(=O)N[C@H]1[C@H](Oc2c3cc4cc2Oc2ccc(cc2Cl)[C@@H](O[C@@H]2O[C@H](CO)[C@@H](O)[C@H](O)[C@H]2NC(C)=O)[C@@H]2NC(=O)[C@H](NC(=O)[C@@H]4NC(=O)[C@H]4NC(=O)[C@@H](Cc5ccc(c(Cl)c5)O3)NC(=O)[C@H](N)c3ccc(O)c(c3)Oc3cc(O)cc4c3)c3ccc(O)c(c3)-c3c(O[C@H]4O[C@H](CO)[C@@H](O)[C@H](O)[C@@H]4O)cc(O)cc3[C@@H](C(=O)O)NC2=O)O[C@H](CO)[C@@H](O)[C@@H]1O [Teicoplanin] + CN[C@H](CC(C)C)C(=O)N[C@H]1C(=O)N[C@@H](CC(N)=O)C(=O)N[C@H]2C(=O)N[C@H]3C(=O)N[C@H](C(=O)N[C@H](C(=O)O)c4cc(O)cc(O)c4-c4cc3ccc4O)[C@H](O)c3ccc(c(Cl)c3)Oc3cc2cc(c3O[C@@H]2O[C@H](CO)[C@@H](O)[C@H](O)[C@H]2O[C@H]2C[C@](C)(N)[C@H](O)[C@H](C)O2)Oc2ccc(cc2Cl)[C@H]1O [Vancomycin]
Settings	Bliss interaction score
B. subtilis 168	-0.0512
S. aureus DSM 20231 [1]	-0.0576
S. aureus Newman [2]	0.0485
S. pneumoniae D39V	0.0981

fitness
Settings	first compound 0.1562 µg/mL	first compound 0.3125 µg/mL	first compound 0.625 µg/mL
S. aureus DSM 20231 [3], partner 0.1875 µg/mL	0.979	≥ 1	≥ 1
S. aureus DSM 20231 [3], partner 0.375 µg/mL	0.834	≥ 1	0.956
S. aureus DSM 20231 [3], partner 0.75 µg/mL	0.932	≥ 1	0.976
S. aureus Newman [4], partner 0.1875 µg/mL	≥ 1	≥ 1	0.914
S. aureus Newman [4], partner 0.375 µg/mL	≥ 1	≥ 1	0.881
S. aureus Newman [4], partner 0.75 µg/mL	0.992	0.949	0.816

fitness, S. aureus Newman [4], one replicate
Settings	first compound 0.62 µg/mL	first compound 1.24 µg/mL	first compound 2.48 µg/mL
partner 0.1875 µg/mL	0.814	0.811	0.418
partner 0.375 µg/mL	0.733	0.757	0.402
partner 0.75 µg/mL	0.734	0.689	0.148
